# In patent publication US11530211B2, “Dihydroindolizinone derivative” (DAIICHI SANKYO COMPANY, LIMITED, priority 2018, dated 2022):
# Where two headings read alike, the source gives them in different places.
# Legend:
# [1] = tested on: human iPS cell Toe strain; assay: Effect to promote differentiation from human iPS cells into insulin-producing cells (insulin-positive cell rate, imaging); assay type: cell-based; set-up: key to Activity: +: the sum of activity values at the two concentrations was obviously higher than the control untreated with compounds while being lower than the positive control; ++: the sum was equivalent to the positive control; +++: the sum was higher than the positive control; conditions: for EC50: efficacy of 10 μM of the compound of Example 1 taken as 100%, 0.01 to 10 μM, read-out: E050; for Activity: sum of activity values at 2 μM and 10 μM compared with positive control (compound of Example 1), added at stages 3 to 5
# From the text: The evaluation system of the effect (efficacy) to promote differentiation from human iPS cells into insulin-producing cells was constructed with reference to known information (Non Patent Document 6). Further, the medium used in each differentiation stage was also produced with reference to known information (differentiation media A to E (Media A to E) described in Non Patent Document 6 were used respectively for stages 1 to 5; however, a medium free from GLP-1 receptor agonist and nicotinamide was used as differentiation medium E).
# In order to evaluate the efficacy of each compound, the compound of Example 1 was used as a positive control, and dimethylsulfoxide (DMSO) (SIGMA, D2650) with a final concentration of 0.1% was used as a control untreated with compounds. […] In the following evaluation, the compound solutions were added to the medium to 0.1% that is the final concentration of DMSO. First, induction from human iPS cell Toe strain (National Institutes of Biomedical Innovation, Health and Nutrition) into cells on day 7 of culture (2 days after replacement with differentiation medium C (cells in the differentiation process from FOXA2-positive primitive gut tube cells into PDX1-positive pancreatic progenitor cells)) was performed according to the method of Non Patent Document 6 for “inducing differentiation from human iPS cells into pancreatic β cells”, and the cells were collected and thereafter stored in liquid nitrogen using Bambanker (NIPPON Genetics Co, Ltd.) at 1×10^7 cells/mL/tube, to produce a cell stock for evaluation. The cell stock was dissolved at the start of the evaluation of efficacy, suspended in differentiation medium C for stage 3 (DMEM high glucose (Life technologies, 11965092), 0.25 μM SANT-1, 0.1 μM LDN193189 (Stemgent, 04-0074), 10 μM SB431542, 2 μM Retinoic acid (Stemgent, 04-0021), 1% B27 serum free supplement (Life technologies, 17504044) and thereafter seeded in a 96-well plate (Corning, #3340) coated with Synthemax II (Corning, #5656) at 1×10^5 cells/well. After culturing for 2 days, the medium was removed, and new differentiation medium C for stage 3 with the compound or only DMSO added was added thereto at 100 μL/well. After culturing for 2 days, the medium was removed, and new differentiation medium D for stage 4 (DMEM high glucose, 0.1 μM LDN193189, 5 μM TGF-β type I receptor kinase inhibitor II (Calbiochem 616452), 0.3 μM (−)-indolactam V (Enzo life science ALX-420-011-C300), 1% B27 serum free supplement) with the compound or only DMSO added was added thereto at 100 μL/well. After culturing for 2 to 3 days, the medium was removed, and new differentiation medium E for stage 5 (GLP-1 receptor agonist and nicotinamide-free; Knockout […] (Life technologies, 12660012), 1% B27 serum free supplement) with the compound or only DMSO added was added thereto at 200 μL/well. After culturing for 2 days, the medium was removed, and a 4% paraformaldehyde phosphorus acid buffer (Wako, 163-20145) was added thereto at 150 μL/well and left standing for 30 to 60 minutes at room temperature to fix the cells. A phosphorus acid buffer (PBS) (Takara, T9181) containing 1% Triton X-100 (Sigma, T8787) was left standing for 15 minutes at room temperature, then washed with PBS-T (Takara, T9183), and was blocked for 1 hour using 20% Blocking One (Nacalai tesque, Tokyo, Japan) diluted with PBS-T at room temperature. After the removal of Blocking One, guinea pig anti-insulin antibody (Abcam, ab7842) diluted 200-fold with 20% Blocking One was added thereto at 50 μL/well, followed by standing at 4° C. overnight. After washing with PBS-T 3 times, […]-labeled anti-guinea pig antibody (Life Technologies, A11075) diluted 1000-fold with 20% Blocking One and 6-diamidino-2-phenylindole (DAPI) (Roche Diagnostics, Basel, Switzerland) were added thereto, followed by standing at room temperature for 2 hours. After washing with PBS-T 3 times, the fluorescence images of the cells were analyzed. […]
# UCHL1 = target: T1, UCHL1 (Homo sapiens, UniProt P09936); assay: Evaluation of UCHL1 activation (ubiquitin-AMC hydrolysis); conditions: test compound 10 μM; control (DMSO) = 100; fluorescence increment 10 minutes to 2 hours; n=3
# T1 sequence (P09936 1-223): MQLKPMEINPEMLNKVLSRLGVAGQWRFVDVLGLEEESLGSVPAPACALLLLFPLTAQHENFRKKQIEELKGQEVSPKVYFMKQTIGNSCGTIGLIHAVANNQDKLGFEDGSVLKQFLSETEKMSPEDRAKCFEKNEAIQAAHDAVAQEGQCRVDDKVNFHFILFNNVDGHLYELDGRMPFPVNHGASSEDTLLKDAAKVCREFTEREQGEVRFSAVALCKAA
# Protocol: Using dimethylsulfoxide (DMSO) (SIGMA, D2650) as a control untreated with compounds (which will be hereinafter referred to as control), each test compound was dissolved in DMSO in use. DMSO and the test compound solutions were each added to the enzymatic reaction solution to a final concentration of 2%. […] The amount of fluorescence (excitation wavelength: 350 nm and fluorescence wavelength: 440 nm) of AMC generated due to hydrolysis of the fluorescence-labeled substrate was measured 10 minutes and 2 hours after the start of the enzymatic reaction, to calculate the increment in amount of fluorescence by subtraction between the two.
# The amount of fluorescence of AMC was measured using Envision (PerkinElmer). The increment in amount of fluorescence of the control was taken as 100%, and the increment in amount of fluorescence of each test compound was expressed as a percentage (%) based on this, to obtain an enzymatic activity value. Enzymatic activity value (%)={(Amount of fluorescence increment of each test compound)/(Amount of fluorescence increment of control)}×100
# ZDF disease rats = assay: Glucose tolerance test after 4 weeks repeated oral administration in ZDF rats; assay type: in vivo, rat; conditions: 10 mg/kg orally once a day for 4 weeks; Day 28; 60 minutes after 2 g/kg glucose loading minus before loading; male ZDF disease rats
# Protocol: After repeated oral administration of the compound according to Example 9 to 8 week-old male ZDF disease rats (CHARLES RIVER LABORATORIES JAPAN, INC.) for 4 weeks (from Day 1 to 28), a glucose tolerance test was conducted on Day 28 to investigate the effect to improve the pathological conditions of diabetes. On Day 0, the ZDF disease rats were subjected to measurement of blood sugar, insulin value, and body weight, as needed, and were grouped by multivariable block assignment. The experiments were conducted in a total of 3 groups of 4 male ZDF Lean rats (lean group), a group of 8 ZDF disease rats with a 0.5 w/v % methylcellulose 400 solution (which will be hereinafter referred to as 0.5% MC) administered (vehicle group), and a group of 8 ZDF disease rats with the compound of Example 9 administered (Example 9 group). The compound according to Example 9 was suspended in 0.5% MC and was orally administered 10 mg/kg once a day.
# The glucose tolerance test was conducted as follows. […] Before the glucose loading and 60 minutes after the glucose loading, blood was collected from the tail vein, and the blood sugar was measured.
# The blood sugar was measured using glucose C2-Test Wako (Cat No. 437-90902 for 700 times, available from Wako Pure Chemical Industries, Ltd).
EC50 ([1]; Homo sapiens),SMILES,also measured
310 nM,"Cc1nc(NC(=O)C2CCC(=O)c3cccn32)sc1-c1ccc(OC(F)(F)F)cc1 (centres unmarked) [Example 36, N-[4-Methyl-5-[4-(trifluoromethoxy)phenyl]thiazol-2-yl]-8-oxo-6,7-dihydro-5H-indolizine-5-carboxamide]",
130 nM,"O=C1CCC(C(=O)Nc2ncc(-c3ccc(OCC(F)(F)F)cc3)s2)n2cccc21 (centres unmarked) [Example 45, 8-Oxo-N-[5-[4-(2,2,2-trifluoroethoxy)phenyl]thiazol-2-yl]-6,7-dihydro-5H-indolizine-5-carboxamide]",
290 nM,"O=C1CCC(C(=O)Nc2nc3ccc(-c4ccc(Cl)cc4)cc3s2)n2cccc21 (centres unmarked) [Example 93, N-[6-(4-Chlorophenyl)-1,3-benzothiazol-2-yl]-8-oxo-6,7-dihydro-5H-indolizine-5-carboxamide]",
,"O=C1CCC(C(=O)Nc2ncc(-c3ccc(OC(F)(F)F)cc3)s2)n2cccc21 (single isomer, unassigned) [Example 10b]",EC50 [1]: 220 nM; Activity [1]: +++
90 nM,"Cc1nc(NC(=O)C2CCC(=O)c3cccn32)sc1-c1ccc(OC(C)(C)C)cc1 (single isomer, unassigned) [Example 101b]",Activity [1]: +++; Enzyme activity (c/o) (UCHL1): 318 c/o
450 nM,"O=C1CCC(C(=O)Nc2ncc(-c3ccc(C(F)(F)F)cc3)s2)n2cccc21 (centres unmarked) [Example 21, 8-Oxo-N-[5-[4-(trifluoromethyl)phenyl]thiazol-2-yl]-6,7-dihydro-5H-indolizine-5-carboxamide]",
,Cc1ccc(-c2cnc(NC(=O)C3CCC(=O)c4cccn43)s2)cc1 (centres unmarked) [Example 18],Activity [1]: ++
1000 nM,"O=C1CCC(C(=O)Nc2ncc(-c3ccc(OC(F)(F)F)c(Cl)c3)s2)n2cccc21 (centres unmarked) [Example 30, N-[5-[3-Chloro-4-(trifluoromethoxy)phenyl]thiazol-2-yl]-8-oxo-6,7-dihydro-5H-indolizine-5-carboxamide]",
230 nM,"O=C1CCC(C(=O)Nc2ncc(-c3ccc(OC(F)(F)F)cc3)s2)n2cccc21 (centres unmarked) [Example 9, 8-Oxo-N-[5-[4-(trifluoromethoxy)phenyl]thiazol-2-yl]-6,7-dihydro-5H-indolizine-5-carboxamide]",Δ Plasma glucose (ZDF disease rats): -275.8 mg/dL; Enzyme activity (c/o) (UCHL1): 270 c/o
5800 nM,"O=C1CCC(C(=O)Nc2ncc(-c3ccccc3)s2)n2cccc21 (centres unmarked) [Example 1, 8-Oxo-N-(5-phenylthiazol-2-yl)-6,7-dihydro-5H-indolizine-5-carboxamide]",
190 nM,"O=C1CCC(C(=O)Nc2ncc(-c3ccc(OCc4ccccc4)c(F)c3)s2)n2cccc21 (centres unmarked) [Example 43, N-[5-(4-Benzyloxy-3-fluorophenyl)thiazol-2-yl]-8-oxo-6,7-dihydro-5H-indolizine-5-carboxamide]",
540 nM,"O=C1CCC(C(=O)Nc2nc3ccc(-c4ccc(OC(F)(F)F)cc4)cc3s2)n2cccc21 (centres unmarked) [Example 59, 8-Oxo-N-[6-[4-(trifluoromethoxy)phenyl]-1,3-benzothiazol-2-yl]-6,7-dihydro-5H-indolizine-5-carboxamide]",
1800 nM,CC1(C(=O)Nc2ncc(-c3ccc(OC(F)(F)F)cc3)s2)CCC(=O)c2cccn21 (centres unmarked) [Example 65],
1600 nM,O=C1CC(C(=O)Nc2ncc(-c3ccc(OC(F)(F)F)cc3)s2)n2cccc21 (centres unmarked) [Example 58],
540 nM,"O=C1CCC(C(=O)Nc2ncc(-c3ccc(Oc4ccccc4)cc3)s2)n2cccc21 (centres unmarked) [Example 46, 8-Oxo-N-[5-(4-phenoxyphenyl)thiazol-2-yl]-6,7-dihydro-5H-indolizine-5-carboxamide]",
,"O=C1CCC(C(=O)Nc2ncc(-c3ccc4ccccc4c3)s2)n2cccc21 (centres unmarked) [Example 24, N-[5-(2-Naphthyl)thiazol-2-yl]-8-oxo-6,7-dihydro-5H-indolizine-5-carboxamide]",Activity [1]: +
240 nM,"Cc1nc(NC(=O)C2CCC(=O)c3cccn32)sc1-c1ccc(OCC(F)(F)F)cc1 (centres unmarked) [Example 88, N-[4-Methyl-5-[4-(2,2,2-trifluoroethoxy)phenyl]thiazol-2-yl]-8-oxo-6,7-dihydro-5H-indolizine-5-carboxamide]",Enzyme activity (c/o) (UCHL1): 422 c/o
820 nM,"O=C1CCC(C(=O)Nc2ncc(-c3ccc4c(c3)OC(F)(F)O4)s2)n2cccc21 (centres unmarked) [Example 40, N-[5-(2,2-Difluoro-1,3-benzodioxol-5-yl)thiazol-2-yl]-8-oxo-6,7-dihydro-5H-indolizine-5-carboxamide]",
,"Cc1nc(NC(=O)C2CCC(=O)c3cccn32)sc1-c1ccc(OC(C)(C)C)cc1 (single isomer, unassigned) [Example 101a]",Activity [1]: +
,"O=C1CCC(C(=O)Nc2ncc(-c3ccc(OC(F)(F)F)cc3)s2)n2cccc21 (single isomer, unassigned) [Example 10a]",EC50 [1]: 1200 nM; Activity [1]: +++

SMILES,EC50 ([1]; Homo sapiens),also measured
"CC(C)(C)Oc1ccc(-c2cnc(NC(=O)C3CCC(=O)c4cccn43)s2)cc1 (centres unmarked) [Example 11, N-[5-(4-Tert-butoxyphenyl)thiazol-2-yl]-8-oxo-6,7-dihydro-5H-indolizine-5-carboxamide]",490 nM,
"Cc1nc(NC(=O)C2CCC(=O)c3cccn32)sc1-c1ccc(OC(C)(C)C)cc1 (centres unmarked) [Example 35, N-[5-(4-tert-Butoxyphenyl)-4-methylthiazol-2-yl]-8-oxo-6,7-dihydro-5H-indolizine-5-carboxamide]",250 nM,
